Laboratory results taken from PMC10108349, “Small-Molecule Fluorescent Ligands for the CXCR4 Chemokine Receptor” (Journal of Medicinal Chemistry, 2023).

Legend:
[1] = tested on: HEK293G cells stably expressing SNAP-CXCR4; assay: Confocal microscopy of fluorescent ligand binding; type: cell-based, human; details: for localisation of fluorescence in cells: 30 min at 37 °C; for membrane fluorescence after pretreatment with IT1t or AMD3100: 10 μM IT1t or 10 μM AMD3100, 30 min pre-incubation; for binding after treatment with AMD3100: 10 μM AMD3100, 30 min pre-incubation
Description: HEK293G-SNAP-CXCR4 cells were seeded onto poly-D-lysine-coated (10 μg/mL) 8-well Nunc Lab-tek chambered coverglass (no. 1.0 borosilicate glass bottom) in DMEM supplemented with 10% FCS at a density of 30,000 cells per well. The following day, media were replaced with fresh media supplemented with 10% FCS containing 0.5 μM SNAP-Surface Alexa Fluor 488 (New England Biolabs, Hitchin UK) for 30 min at 37 °C. […]
Cells were imaged on a Zeiss LSM880 with a Zeiss Axio Observer Z1 stand (Carl Zeiss, Germany) using a 40× C-apochromat NA1.2 water immersion objective. Excitation was via a 488 nm argon (to image SNAP-Surface Alexa Fluor 488) and 633 nm helium-neon (to image fluorescent ligands) laser lines with a 488/561/633 multibeam splitter and emission collected using a 493–628 nm band pass or 638–737 nm band pass. The pinhole was set at 1 Airy unit for the longer wavelength and laser power and gain and offset settings kept constant within the experiment to allow comparison. Equatorial plane images were made and four images were captured per condition per experiment using ZEN 2012 software (Carl Zeiss, Germany). Imaging of each ligand was performed at least three times.

NLuc-CXCR4 = target: T1, NLuc-CXCR4 (Homo sapiens, UniProt P61073); type: binding
T1 construct: expressed in transfected cells; membranes prepared from them
T1 sequence (P61073 whole entry): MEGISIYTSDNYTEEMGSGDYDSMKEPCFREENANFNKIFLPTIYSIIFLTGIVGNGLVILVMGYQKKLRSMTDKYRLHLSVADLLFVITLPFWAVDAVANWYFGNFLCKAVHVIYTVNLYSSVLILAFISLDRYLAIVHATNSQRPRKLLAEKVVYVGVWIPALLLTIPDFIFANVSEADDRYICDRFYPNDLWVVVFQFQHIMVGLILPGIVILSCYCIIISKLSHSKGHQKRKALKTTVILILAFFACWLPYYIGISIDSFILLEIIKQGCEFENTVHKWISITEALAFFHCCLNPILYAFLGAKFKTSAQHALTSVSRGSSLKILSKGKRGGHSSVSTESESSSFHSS
Description: In white clear-bottom 96-well plates or white opaque bottom 96-well plates, membranes expressing NLuc-CXCR4 were diluted to 10 μg per well in 20 μL of HBSS containing 0.2% BSA. […] Plates were then incubated in the dark for 2 h at 37 °C in the absence of CO2. The NLuc substrate furimazine (Promega Corporation) was then added (5 μL per well, 10 μM final concentration) and the plates were read using the PHERAstar FS plate reader (BMG Labtech, UK) at room temperature. The filtered light from each well was simultaneously measured using a 460 nm (80 nm band-pass filter) for NLuc emission and >610 nm longpass filter for fluorescence emission of BODIPY 630/650-X coupled ligands. For BODIPY-FL-X coupled ligands, emissions were simultaneously measured at 475 nm (30 nm band-pass filter; NLuc emission) and 535 nm (30 nm bandpass filter; BODIPY FL-X emission). The resulting raw BRET ratio was calculated by dividing the >610 nm emission (for red ligands) or the 535 nm emission (for green ligands) by the emissions measured for NLuc. […]

Molecule: CN1\C(=C/C=C/C=C/C2=[N+](CCCCCC(=O)N[C@H]3CC[C@H](/N=C(/NC4CCCCC4)SCC4=CSC5=NC(C)(C)CN45)CC3)c3ccc(S(=O)(=O)[O-])cc3C2(C)C)C(C)(C)c2cc(S(=O)(=O)O)ccc21 [Compound 11, 1-(6-(((1R,4R)-4-(((Z)-(Cyclohexylamino) (((6,6-dimethyl-5,6-dihydroimidazo[2,1-b]thiazol-3-yl)methyl)thio)methylene)amino)cyclohexyl)amino)-6-oxohexyl)-3,3-dimethyl-2-((1E,3E)-5-((Z)-1,3,3-trimethyl-5-sulfoindolin-2-ylidene)penta-1,3-dien-1-yl)-3H-indol-1-ium-5-sulfonate]
- localisation of fluorescence in cells ([1]; 100 nM ligand): highly localized to the cell membrane
- membrane fluorescence after pretreatment with IT1t or AMD3100 ([1]; 100 nM ligand): completely prevented

Molecule: O=C(CCCCCNC(=O)COc1ccc(/C=C/C2=[N+]3C(=Cc4ccc(-c5cccs5)n4[B-]3(F)F)C=C2)cc1)NCCCCN(Cc1nc2ccccc2[nH]1)[C@H]1CCCc2cccnc21 [Compound 24, (S,E)-N-(4-(((1H-Benzo[d]imidazole-2-yl)methyl) (5,6,7,8-tetrahydroquinolin-8-yl)amino)butyl)-6-(2-(4-(2-(5,5-difluoro-7-(thiophen-2-yl)-5H-4λ4,5λ4-dipyrrolo [1,2-c:2′,1′-f][1,3,2]diazaborinin-3-yl)vinyl)phenoxy)acetamido)hexanamide]
- localisation of fluorescence in cells ([1]; 50 nM ligand): reasonable membrane fluorescence; however, intracellular fluorescence was also apparent
- binding after treatment with AMD3100 ([1]; 50 nM ligand): reduced binding to cell surface receptors

Molecule: CN(Cc1ncc2ccccc2c1CCCNC(=O)CCCCCNC(=O)COc1ccc(/C=C/C2=[N+]3C(=Cc4ccc(-c5cccs5)n4[B-]3(F)F)C=C2)cc1)[C@H]1CCCc2cccnc21 [Compound 18a, (S,E)-6-(2-(4-(2-(5,5-Difluoro-7-(thiophen-2-yl)-5H-4λ^4,5λ^4-dipyrrolo[1,2-c:2′,1′-f][1,3,2]diazaborinin-3-yl)vinyl)phenoxy)acetamido)-N-(3-(3-((methyl(5,6,7,8-tetrahydroquinolin-8-yl)amino)methyl)isoquinolin-4-yl)propyl)hexanamide]
- localisation of fluorescence in cells ([1]; 50 nM ligand): reasonable membrane fluorescence; however, intracellular fluorescence was also apparent
- binding after treatment with AMD3100 ([1]; 50 nM ligand): reduced binding to cell surface receptors

Molecule: CC1(C)CN2C(CS/C(=N/[C@H]3CC[C@H](NC(=O)CCCCCNC(=O)COc4ccc(/C=C/C5=[N+]6C(=Cc7ccc(-c8cccs8)n7[B-]6(F)F)C=C5)cc4)CC3)NC3CCCCC3)=CSC2=N1 [Compound 10, (6,6-Dimethyl-5,6-dihydroimidazo[2,1-b]thiazol-3-yl)methyl (E)-N-Cyclohexyl-N′-((1R,4R)-4-(6-(2-(4-((E)-2-(5,5-difluoro-7-(thiophen-2-yl)-5H-4λ^4,5λ^4-dipyrrolo[1,2-c:2′,1′-f][1,3,2]diazaborinin-3-yl)vinyl)phenoxy)acetamido)hexanamido)cyclo-hexyl)carbamimidothioate]
- localisation of fluorescence in cells ([1]; 100 nM ligand): localized membrane fluorescence and very little intracellular fluorescence
- membrane fluorescence after pretreatment with IT1t or AMD3100 ([1]; 100 nM ligand): substantially reduced

Molecule: CXCL12: chemokine, the only endogenous ligand of CXCR4, purchased from PeproTech
- concentration-dependent decrease of the BRET signal (NLuc-CXCR4): not
- displacement of fluorescently labeled CXCL12 (NLuc-CXCR4): fully displaced
